How the values were obtained:
NOD1∆CARD = molecular target: T1, NOD1∆CARD (Homo sapiens, UniProt Q9Y239); assay: MST with cell lysates expressing NOD1 mutants; assay type: binding; settings: Fig EV5D
T1 sequence (Q9Y239 196-953 limits assumed): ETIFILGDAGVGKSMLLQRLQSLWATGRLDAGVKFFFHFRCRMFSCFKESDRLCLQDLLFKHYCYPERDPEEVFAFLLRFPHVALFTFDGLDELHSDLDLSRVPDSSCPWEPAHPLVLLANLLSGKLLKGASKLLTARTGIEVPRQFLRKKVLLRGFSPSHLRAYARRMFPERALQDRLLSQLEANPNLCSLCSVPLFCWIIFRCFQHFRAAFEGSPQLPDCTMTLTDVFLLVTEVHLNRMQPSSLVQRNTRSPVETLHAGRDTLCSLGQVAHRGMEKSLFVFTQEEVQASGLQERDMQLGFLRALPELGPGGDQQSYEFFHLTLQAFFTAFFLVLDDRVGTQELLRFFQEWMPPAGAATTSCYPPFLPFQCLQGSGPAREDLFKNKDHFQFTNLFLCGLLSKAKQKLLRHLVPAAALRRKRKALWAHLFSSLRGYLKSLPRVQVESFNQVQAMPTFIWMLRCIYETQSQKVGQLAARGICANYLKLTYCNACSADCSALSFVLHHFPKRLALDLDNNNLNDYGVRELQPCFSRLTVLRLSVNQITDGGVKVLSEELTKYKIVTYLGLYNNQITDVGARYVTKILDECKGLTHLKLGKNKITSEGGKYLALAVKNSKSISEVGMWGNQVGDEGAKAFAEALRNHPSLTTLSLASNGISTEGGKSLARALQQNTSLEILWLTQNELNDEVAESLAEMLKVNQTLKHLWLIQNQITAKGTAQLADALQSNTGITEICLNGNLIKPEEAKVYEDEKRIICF
Protocol: Binding of NOD1, NOD2, GFP, or NLRP3‐GFP to different ligands was measured by microscale thermophoresis (MST). 20 nM GFP or GFP‐tagged proteins in MST buffer (PBS pH 7.4, containing 0.5% NP‐40 and 10 mM DTT) was incubated with different concentrations of ligands. Immediately, samples were loaded into standard glass capillaries (NanoTemper) and thermophoresis analysis was performed on a NanoTemper Monolith NT.115 instrument (40% LED, 80% MST power) at 22°C. A laser on‐time of 30 s and a laser off‐time of 5 s were used. The experiment was performed in triplicates, and the MST curves were fitted using NT analysis software to obtain the K d values.

HeLa NOD1 or NOD2 cells = assay: Western blot analysis in HeLa NOD1 or NOD2 cells; assay type: cell-based, human
Protocol: Cells were lysed in RIPA buffer supplemented with protease inhibitor cocktail and PhosSTOP (Roche, 4906837001) on ice for 10 min. After centrifugation at 16,000 × g for 10 min, supernatants were heated with SDS sample buffer at 95°C for 10 min. Proteins were separated on 4–15% SDS gels (Bio‐Rad, 4561086) and transferred onto nitrocellulose membranes. The membranes were incubated with primary antibodies at 4°C overnight and secondary antibodies at RT for 1 h, respectively. All antibodies were diluted in PBS supplemented with 0.1% Tween‐20 (Sigma‐Aldrich, P1379) and 5% BSA. Membranes were developed with ECL detection Kit (Thermo Fisher Scientific, 34094) and exposed with ChemiDoc (Bio‐Rad). The antibody against ACTB/β‐actin was used as loading control.

Interaction with NOD1∆CARD by MST (NOD1∆CARD): still interacted
Structure (SMILES): CCCCCCCCCCCCC/C=C/[C@@H](O)[C@@H](N)COP(=O)(O)O [S1P, sphingosine‐1‐phosphate]
NOD1 or NOD2 degradation (HeLa NOD1 or NOD2 cells; 20 µM with digitonin, Fig EV4G): did not induce NOD1 or NOD2 degradation | MAPK activation and NF-κB activation (HeLa NOD1 or NOD2 cells; cytosolic S1P 20 µM): triggered MAPK activation and NF‐κB activation

Reference: paper PMC8246065 (The EMBO Journal, 2021)
